Measured values published in ChEMBL document CHEMBL3621157, “Design, synthesis and biological evaluation of novel 1,2,4-triazolo and 1,2,4-triazino[4,3-a]quinoxalines as potential anticancer and antimicrobial agents” (2015).
Converted amounts (≈) assume the structure as drawn.

Key:
Type in all cases: functional
[1] = test system: Bacillus subtilis; test: Antimicrobial activity against Bacillus subtilis ATCC 6633 incubated at 37 degC for 24 hrs by cup diffusion method
[2] = test system: A549; test: Growth inhibition of human A549 cells incubated for 48 hrs by sulforhodamine B assay; details: A549, 48 h
[3] = test system: IGROV-1; test: Growth inhibition of human IGROV1 cells incubated for 48 hrs by sulforhodamine B assay; details: IGROV-1, 48 h
[4] = test system: UO-31; test: Growth inhibition of human UO31 cells incubated for 48 hrs by sulforhodamine B assay; details: UO-31, 48 h
[5] = test system: SF-268; test: Growth inhibition of human SF268 cells at 10 uM incubated for 48 hrs by sulforhodamine B assay; details: SF-268, 48 h, read-out: GI
[6] = test system: TK-10; test: Growth inhibition of human TK10 cells incubated for 48 hrs by sulforhodamine B assay; details: TK-10, 48 h
[7] = test system: SK-OV-3; test: Growth inhibition of human SKOV3 cells incubated for 48 hrs by sulforhodamine B assay; details: SK-OV-3, 48 h
[8] = Growth inhibition of human SF295 cells incubated for 48 hrs by sulforhodamine B assay; details: SF-295, 48 h
[9] = test system: DU-145; test: Growth inhibition of human DU145 cells incubated for 48 hrs by sulforhodamine B assay; details: DU-145, 48 h
[10] = test system: U-251; test: Growth inhibition of human U251 cells incubated for 48 hrs by sulforhodamine B assay; details: U-251, 48 h
[11] = Growth inhibition of human MOLT4 cells incubated for 48 hrs by sulforhodamine B assay; details: MOLT-4, 48 h
[12] = test system: Staphylococcus aureus; test: Antimicrobial activity against Staphylococcus aureus DSM 1104 incubated at 37 degC for 24 hrs by cup diffusion method
[13] = test system: SK-MEL-2; test: Growth inhibition of human SK-MEL-2 cells incubated for 48 hrs by sulforhodamine B assay; details: SK-MEL-2, 48 h
[14] = test system: MCF7; test: Growth inhibition of human MCF7 cells incubated for 48 hrs by sulforhodamine B assay; details: MCF7, 48 h
[15] = test system: NCI-H322M; test: Growth inhibition of human NCI-H322M cells incubated for 48 hrs by sulforhodamine B assay
[16] = test system: KM12; test: Growth inhibition of human KM12 cells at 10 uM incubated for 48 hrs by sulforhodamine B assay; details: KM12, 48 h, read-out: GI
[17] = Growth inhibition of human COLO205 cells incubated for 48 hrs by sulforhodamine B assay; details: COLO 205, 48 h
[18] = test system: HCT-116; test: Growth inhibition of human HCT116 cells at 10 uM incubated for 48 hrs by sulforhodamine B assay; details: HCT-116, 48 h, read-out: GI
[19] = test system: K562; test: Growth inhibition of human K562 cells incubated for 48 hrs by sulforhodamine B assay; details: K562, 48 h
[20] = test system: Escherichia coli; test: Antimicrobial activity against Escherichia coli ATCC 11775 incubated for 24 hrs by two-fold serial broth dilution method; details: ATCC 11775, 24 h
[21] = test system: Pseudomonas aeruginosa; test: Antimicrobial activity against Pseudomonas aeruginosa ATCC 10145 incubated at 37 degC for 24 hrs by cup diffusion method
[22] = test system: NCI-H460; test: Growth inhibition of human NCI-H460 cells at 10 uM incubated for 48 hrs by sulforhodamine B assay; details: NCI-H460, 48 h, read-out: GI
[23] = test system: A498; test: Growth inhibition of human A498 cells incubated for 48 hrs by sulforhodamine B assay; details: A498, 48 h
[24] = Growth inhibition of human RPMI8226 cells incubated for 48 hrs by sulforhodamine B assay; details: RPMI-8226, 48 h
[25] = Growth inhibition of human HOP92 cells at 10 uM incubated for 48 hrs by sulforhodamine B assay; details: HOP-92, 48 h, read-out: GI
[26] = test system: CCRF-CEM; test: Growth inhibition of human CCRF-CEM cells incubated for 48 hrs by sulforhodamine B assay
[27] = test system: U-251; test: Growth inhibition of human U251 cells at 10 uM incubated for 48 hrs by sulforhodamine B assay; details: U-251, 48 h, read-out: GI
[28] = test system: HOP-62; test: Growth inhibition of human HOP62 cells incubated for 48 hrs by sulforhodamine B assay; details: HOP-62, 48 h
[29] = test system: M14; test: Growth inhibition of human M14 cells incubated for 48 hrs by sulforhodamine B assay; details: M14, 48 h
[30] = test system: MDA-MB-468; test: Growth inhibition of human MDA-MB-468 cells incubated for 48 hrs by sulforhodamine B assay; details: MDA-MB-468, 48 h
[31] = Growth inhibition of human RPMI8226 cells at 10 uM incubated for 48 hrs by sulforhodamine B assay; details: RPMI-8226, 48 h, read-out: GI
[32] = test system: Staphylococcus aureus; test: Antimicrobial activity against Staphylococcus aureus DSM 1104 incubated for 24 hrs by two-fold serial broth dilution method; details: DSM 1104, 24 h
[33] = test system: Malme-3M; test: Growth inhibition of human MALME-3M cells incubated for 48 hrs by sulforhodamine B assay
[34] = test system: Bacillus subtilis; test: Antimicrobial activity against Bacillus subtilis ATCC 6633 incubated for 24 hrs by two-fold serial broth dilution method; details: ATCC 6633, 24 h
[35] = test system: Candida albicans; test: Antimicrobial activity against Candida albicans DSM 70014 incubated for 48 hrs followed by transfer of colonies to Muller-Hinton agar plate and measured after 18 hrs by two-fold serial broth dilution method
[36] = test system: MDA-MB-231; test: Growth inhibition of human MDA-MB-231 cells incubated for 48 hrs by sulforhodamine B assay; details: MDA-MB-231, 48 h
[37] = test system: HL-60(TB); test: Growth inhibition of human HL-60(TB) cells at 10 uM incubated for 48 hrs by sulforhodamine B assay; details: HL-60, 48 h, read-out: GI
[38] = Growth inhibition of human LOXIMVI cells at 10 uM incubated for 48 hrs by sulforhodamine B assay; details: LOX IMVI, read-out: GI

With `Clc1ccccc1-c1nnc2c(Cc3ccccc3)nc3ccccc3n12` the “inhibition zone (IZ)” value [1] was 12 mm, the GI50 [2] was 8.77 µM and the GI50 [3] was 27.7 µM. It also gave a GI50 [4] of 25 µM, an inhibition of growth at 10 µM [5] of 47.5% and a GI50 [6] of 37.4 µM. The GI50 [7] was 23.9 µM, the GI50 [8] was 12.3 µM and the GI50 [9] was 44.2 µM. The GI50 [10] was 5.18 µM, the GI50 [11] was 9.04 µM and the “inhibition zone (IZ)” value [12] was 12 mm. For the same compound, the GI50 [13] was 55.8 µM, the GI50 [14] was 22.2 µM and the GI50 [15] was 53.9 µM. The inhibition of growth at 10 µM [16] was 51.1%, the GI50 [17] was 8.77 µM and the inhibition of growth at 10 µM [18] was 65.9%. For the same compound, the GI50 [19] was 5.55 µM, the MIC [20] was 25 µg/mL (≈ 67.4 µM) and the “inhibition zone (IZ)” value [21] was 14 mm. It also gave an inhibition of growth at 10 µM [22] of 84.4%, a GI50 [23] of 1.8 µM and a GI50 [24] of 5.64 µM. It also gave an inhibition of growth at 10 µM [25] of 50.1%, a GI50 [26] of 7.11 µM and an inhibition of growth at 10 µM [27] of 57.2%. The GI50 [28] was 12.4 µM, the GI50 [29] was 36.7 µM and the GI50 [30] was 5.55 µM. The inhibition of growth at 10 µM [31] was 63.8%, the MIC [32] was 100 µg/mL (≈ 270 µM) and the GI50 [33] was 23.8 µM. It also gave an MIC [34] of 25 µg/mL (≈ 67.4 µM), an MFC [35] of 200 µg/mL (≈ 539 µM) and a GI50 [36] of 6.24 µM. It also gave an inhibition of growth at 10 µM [37] of 46.4% and an inhibition of growth at 10 µM [38] of 60.6%.
